# Assay results from US11365220B2, “Methods of making anti-GP41 antibody-specific capture agents” (California Institute of Technology, priority 2013, dated 2022).
# System: 4B3
# Conditions: stored under N2 at 25° C., 37° C., or 57° C. for 58 days; 10 nM 4B3 spiked in 1% v/v human serum
# Procedure: Small amounts of (iii) were stored under N2 at 25° C., 37° C., or 57° C. for 58 days. […] The remaining samples were lyophilized and used in a single point sandwich ELISA. Streptavidin-coated 96-well plates were saturated with the samples of (iii) recovered from the storage experiments using 1 μM solutions in TBS. The plates were blocked with 5% w/v dry milk in TBS, then incubated with either 1% v/v human serum or 10 nM 4B3 spiked in 1% v/v human serum in 0.5% w/v dry milk in TBS at room temperature for 1 hr. Bound antibody was probed with HPR-conjugated mouse monoclonal antibody to human IgG Fc diluted 1:15,000 in 0.5% w/v dry milk in TBS. The colorimetric assay was developed with TMB substrate, then quenched with 1 M H2SO4 and read at 450 nm.
substance,measurement,value
Biotin-PEG5-IWCGSGKLICTTA-Pra-(TZ-Az4-eihny-CONH2)-ICTTA-CONH2 [(iii)],ELISA performance after storage,no detectable loss of performance
